{"source": "ChEMBL document CHEMBL1201862", "about": "“PubChem BioAssay data set” (2004)", "key": {"[1]": {"target": "T1, Rac GTPase-activating protein 1 (Homo sapiens, UniProt Q9H0H5)", "T1 sequence (Q9H0H5 whole entry)": "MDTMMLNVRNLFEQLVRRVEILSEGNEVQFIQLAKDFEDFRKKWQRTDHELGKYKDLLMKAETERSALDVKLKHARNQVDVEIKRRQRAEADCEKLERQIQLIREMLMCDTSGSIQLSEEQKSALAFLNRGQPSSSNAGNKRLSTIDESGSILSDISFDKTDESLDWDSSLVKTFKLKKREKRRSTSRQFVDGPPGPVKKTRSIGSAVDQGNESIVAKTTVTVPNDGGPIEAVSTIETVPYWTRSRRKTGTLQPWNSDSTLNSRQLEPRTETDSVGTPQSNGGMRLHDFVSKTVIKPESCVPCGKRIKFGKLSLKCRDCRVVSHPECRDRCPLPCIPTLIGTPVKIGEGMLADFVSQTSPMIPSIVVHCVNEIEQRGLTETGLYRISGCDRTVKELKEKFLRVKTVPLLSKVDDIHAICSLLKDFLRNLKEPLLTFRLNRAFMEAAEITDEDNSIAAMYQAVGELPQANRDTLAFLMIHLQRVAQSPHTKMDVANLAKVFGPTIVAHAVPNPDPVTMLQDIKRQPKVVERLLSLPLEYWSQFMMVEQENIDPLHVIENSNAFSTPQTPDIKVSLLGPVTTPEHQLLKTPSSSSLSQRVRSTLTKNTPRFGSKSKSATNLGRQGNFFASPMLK", "experiment": "MgcRacGAP GTPase-activating activity inhibitors, confirmation, biochemical, ADP Hunter fluorescence, primary and confirmatory (AID 624330)", "format": "functional"}, "Fibrinogen beta chain [2]": {"target": "T2, Fibrinogen beta chain (Homo sapiens, UniProt P02675)", "T2 sequence (P02675 whole entry, the tested form may be a part)": "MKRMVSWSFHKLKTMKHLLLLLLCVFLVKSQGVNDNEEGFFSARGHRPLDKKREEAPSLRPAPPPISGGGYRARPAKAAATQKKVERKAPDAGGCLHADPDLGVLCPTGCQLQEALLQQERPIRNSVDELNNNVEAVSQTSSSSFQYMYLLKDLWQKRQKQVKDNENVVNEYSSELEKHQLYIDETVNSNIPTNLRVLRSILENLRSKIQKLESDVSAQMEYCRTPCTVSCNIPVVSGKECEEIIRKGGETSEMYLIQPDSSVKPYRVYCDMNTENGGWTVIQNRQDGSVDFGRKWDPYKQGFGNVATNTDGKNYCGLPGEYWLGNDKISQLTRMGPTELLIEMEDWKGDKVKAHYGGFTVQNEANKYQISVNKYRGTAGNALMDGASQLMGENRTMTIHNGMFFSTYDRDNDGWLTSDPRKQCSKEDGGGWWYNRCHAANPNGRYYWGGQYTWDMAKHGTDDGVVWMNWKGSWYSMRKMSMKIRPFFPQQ", "experiment": "Fluorescence polarization-based biochemical high throughput dose response assay to identify inhibitors that disrupt the binding of a cyclic peptide (Tn6) to the fibrin proteolytic product D-Dimer and fragment E complex [DD(E )]."}, "Fibrinogen beta chain [3]": {"target": "T2, Fibrinogen beta chain", "experiment": "Fluorescence polarization-based biochemical high throughput dose response assay to identify inhibitors that disrupt the binding of a cyclic peptide (Tn7) to the fibrin proteolytic product D-Dimer and fragment E complex [DD(E )]."}, "[4]": {"target": "Oxysterols receptor LXR-beta (Homo sapiens, UniProt P55055)", "sequence (P55055 whole entry)": "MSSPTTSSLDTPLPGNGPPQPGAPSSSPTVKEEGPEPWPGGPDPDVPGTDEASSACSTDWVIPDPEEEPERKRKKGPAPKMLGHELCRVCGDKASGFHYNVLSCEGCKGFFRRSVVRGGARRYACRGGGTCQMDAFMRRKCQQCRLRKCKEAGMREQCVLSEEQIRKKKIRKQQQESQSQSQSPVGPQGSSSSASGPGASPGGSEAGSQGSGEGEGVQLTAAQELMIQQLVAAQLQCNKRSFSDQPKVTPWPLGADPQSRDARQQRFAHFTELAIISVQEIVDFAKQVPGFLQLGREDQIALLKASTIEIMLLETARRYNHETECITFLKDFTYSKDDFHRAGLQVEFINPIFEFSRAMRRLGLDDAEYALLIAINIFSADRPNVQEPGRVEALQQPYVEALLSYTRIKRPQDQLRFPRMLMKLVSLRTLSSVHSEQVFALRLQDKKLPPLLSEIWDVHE", "format": "functional, cell-based"}, "cells [5]": {"experiment": "cells"}, "[6]": {"target": "E3 ubiquitin-protein ligase UHRF1 (Homo sapiens, UniProt Q96T88)", "sequence (Q96T88 whole entry, the tested form may be a part)": "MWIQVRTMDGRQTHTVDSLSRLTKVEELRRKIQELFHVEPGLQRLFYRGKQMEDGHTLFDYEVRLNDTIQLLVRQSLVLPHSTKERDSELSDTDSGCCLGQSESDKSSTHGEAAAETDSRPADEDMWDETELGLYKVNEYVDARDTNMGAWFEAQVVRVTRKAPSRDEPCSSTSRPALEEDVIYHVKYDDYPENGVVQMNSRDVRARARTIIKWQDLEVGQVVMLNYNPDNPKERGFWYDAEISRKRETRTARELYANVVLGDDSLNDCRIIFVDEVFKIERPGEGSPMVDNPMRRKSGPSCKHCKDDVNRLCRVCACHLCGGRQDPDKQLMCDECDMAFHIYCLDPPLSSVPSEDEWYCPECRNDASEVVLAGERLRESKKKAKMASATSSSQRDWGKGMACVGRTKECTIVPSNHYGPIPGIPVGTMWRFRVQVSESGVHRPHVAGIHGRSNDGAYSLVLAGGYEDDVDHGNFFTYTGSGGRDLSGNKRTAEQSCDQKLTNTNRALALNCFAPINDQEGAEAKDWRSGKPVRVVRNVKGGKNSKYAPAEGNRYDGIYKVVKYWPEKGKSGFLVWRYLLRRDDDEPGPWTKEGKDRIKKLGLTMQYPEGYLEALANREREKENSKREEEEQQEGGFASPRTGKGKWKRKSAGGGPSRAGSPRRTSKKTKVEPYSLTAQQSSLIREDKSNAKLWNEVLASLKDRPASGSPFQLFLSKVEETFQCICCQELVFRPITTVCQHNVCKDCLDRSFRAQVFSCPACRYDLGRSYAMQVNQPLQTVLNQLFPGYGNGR", "experiment": "Counterscreen for inhibitors of 5-meCpG-binding domain protein 2 (MBD2): TRFRET-based biochemical high throughput dose response assay to identify inhibitors of binding of ubiquitin-like with PHD and ring finger domains 1 (UHRF1) to methylated oligonucleotide."}, "[7]": {"experiment": "Vero cell cytotoxicity, dose response, cytotoxicity control for Vif-APOBEC3G degradation inhibitor project, Vero cells (AID 1117358)", "format": "functional", "details": "Human immunodeficiency virus 1, Vero"}, "[8]": {"experiment": "cytotoxicity in A549 cells, dose response, cytotoxicity control, cell-based, CellTiter-Glo luminescence, cherry-pick (AID 743484)", "format": "functional"}, "[9]": {"target": "G-protein coupled receptor 183 (Homo sapiens, UniProt P32249)", "sequence (P32249 whole entry)": "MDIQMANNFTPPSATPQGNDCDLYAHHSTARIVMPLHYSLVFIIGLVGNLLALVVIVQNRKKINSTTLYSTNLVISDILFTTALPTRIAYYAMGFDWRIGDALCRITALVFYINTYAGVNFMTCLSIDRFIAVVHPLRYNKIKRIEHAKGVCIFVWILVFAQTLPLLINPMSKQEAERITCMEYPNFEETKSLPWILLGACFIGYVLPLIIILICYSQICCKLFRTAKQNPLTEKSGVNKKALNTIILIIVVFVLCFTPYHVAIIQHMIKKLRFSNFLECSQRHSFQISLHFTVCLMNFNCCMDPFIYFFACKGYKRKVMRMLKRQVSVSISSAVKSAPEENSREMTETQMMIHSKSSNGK", "experiment": "SAR confirmation of small molecule antagonists of the EBI2 receptor via a luminescent beta-arrestin assa.", "format": "functional"}, "Transthyretin": {"target": "Transthyretin (Homo sapiens, UniProt P02766)", "experiment": "Luminescence-based cell-based high throughput dose response assay to identify activators of Transthyretin (TTR) transcription.", "format": "functional"}, "Prothrombin": {"target": "Prothrombin (Homo sapiens, UniProt P00734)", "experiment": "Thrombin 1536 HTS Dose Response Confirmation. [Related pubchem assays: 1046 (Thrombin 1536 HTS; hits were confirmed in this assay)]", "format": "functional"}, "[10]": {"experiment": "inhibitors of Vif binding to APOBEC3G peptide, primary screen, biochemical, TR-FRET, GST-Vif 1-94, biotin-A3G peptide, dose response retest (AID 1117319);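 further: TR-FRET signal of purified GST-Vif binding a biotinylated A3G peptide; inhibitors lower the FRET signal by blocking Vif and A3G binding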", "format": "functional"}, "[11]": {"experiment": "HEK293 cell cytotoxicity, dose response, cytotoxicity control, ATP luminescence, dry powder, set 3 (AID 743131)", "format": "functional, cell-based"}, "[12]": {"experiment": "HepG2 cell cytotoxicity, dose response, cytotoxicity control, ATP luminescence, dry powder, set 2 (AID 743129)", "format": "functional, cell-based"}, "[13]": {"experiment": "A375 melanoma cell viability loss, dose response, counter-screen for MITF inhibitor project, CellTiter-Glo luminescence, dry powder, set 4 (AID 624364);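 further: A375 melanoma cells are MITF independent so this is a counter screen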", "format": "functional, cell-based", "details": "A-375"}, "[14]": {"experiment": "A375 melanoma cell cytotoxicity, dose response, counter-screen for MITF inhibitor project, CellTiter-Glo luminescence, dry powder, set 2 (AID 624489);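 further: actives are compounds lowering A375 viability meaning general cytotoxicity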", "format": "functional, cell-based", "details": "A-375"}, "[15]": {"experiment": "P. falciparum late gametocyte killing, dose response, luminescence (AID 1117278);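 further: gametocytes exposed to compound for 24 hours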", "format": "functional, cell-based"}, "[16]": {"experiment": "Jurkat T cell cytotoxicity, dose response, cytotoxicity control for P. falciparum gametocyte viability project, luminescence (AID 1117277);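 further: potency reflects loss of cellular ATP meaning fewer viable cells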", "format": "functional, cell-based"}, "[17]": {"target": "DNA (cytosine-5)-methyltransferase 1 (Homo sapiens, UniProt P26358)", "sequence (P26358 whole entry)": "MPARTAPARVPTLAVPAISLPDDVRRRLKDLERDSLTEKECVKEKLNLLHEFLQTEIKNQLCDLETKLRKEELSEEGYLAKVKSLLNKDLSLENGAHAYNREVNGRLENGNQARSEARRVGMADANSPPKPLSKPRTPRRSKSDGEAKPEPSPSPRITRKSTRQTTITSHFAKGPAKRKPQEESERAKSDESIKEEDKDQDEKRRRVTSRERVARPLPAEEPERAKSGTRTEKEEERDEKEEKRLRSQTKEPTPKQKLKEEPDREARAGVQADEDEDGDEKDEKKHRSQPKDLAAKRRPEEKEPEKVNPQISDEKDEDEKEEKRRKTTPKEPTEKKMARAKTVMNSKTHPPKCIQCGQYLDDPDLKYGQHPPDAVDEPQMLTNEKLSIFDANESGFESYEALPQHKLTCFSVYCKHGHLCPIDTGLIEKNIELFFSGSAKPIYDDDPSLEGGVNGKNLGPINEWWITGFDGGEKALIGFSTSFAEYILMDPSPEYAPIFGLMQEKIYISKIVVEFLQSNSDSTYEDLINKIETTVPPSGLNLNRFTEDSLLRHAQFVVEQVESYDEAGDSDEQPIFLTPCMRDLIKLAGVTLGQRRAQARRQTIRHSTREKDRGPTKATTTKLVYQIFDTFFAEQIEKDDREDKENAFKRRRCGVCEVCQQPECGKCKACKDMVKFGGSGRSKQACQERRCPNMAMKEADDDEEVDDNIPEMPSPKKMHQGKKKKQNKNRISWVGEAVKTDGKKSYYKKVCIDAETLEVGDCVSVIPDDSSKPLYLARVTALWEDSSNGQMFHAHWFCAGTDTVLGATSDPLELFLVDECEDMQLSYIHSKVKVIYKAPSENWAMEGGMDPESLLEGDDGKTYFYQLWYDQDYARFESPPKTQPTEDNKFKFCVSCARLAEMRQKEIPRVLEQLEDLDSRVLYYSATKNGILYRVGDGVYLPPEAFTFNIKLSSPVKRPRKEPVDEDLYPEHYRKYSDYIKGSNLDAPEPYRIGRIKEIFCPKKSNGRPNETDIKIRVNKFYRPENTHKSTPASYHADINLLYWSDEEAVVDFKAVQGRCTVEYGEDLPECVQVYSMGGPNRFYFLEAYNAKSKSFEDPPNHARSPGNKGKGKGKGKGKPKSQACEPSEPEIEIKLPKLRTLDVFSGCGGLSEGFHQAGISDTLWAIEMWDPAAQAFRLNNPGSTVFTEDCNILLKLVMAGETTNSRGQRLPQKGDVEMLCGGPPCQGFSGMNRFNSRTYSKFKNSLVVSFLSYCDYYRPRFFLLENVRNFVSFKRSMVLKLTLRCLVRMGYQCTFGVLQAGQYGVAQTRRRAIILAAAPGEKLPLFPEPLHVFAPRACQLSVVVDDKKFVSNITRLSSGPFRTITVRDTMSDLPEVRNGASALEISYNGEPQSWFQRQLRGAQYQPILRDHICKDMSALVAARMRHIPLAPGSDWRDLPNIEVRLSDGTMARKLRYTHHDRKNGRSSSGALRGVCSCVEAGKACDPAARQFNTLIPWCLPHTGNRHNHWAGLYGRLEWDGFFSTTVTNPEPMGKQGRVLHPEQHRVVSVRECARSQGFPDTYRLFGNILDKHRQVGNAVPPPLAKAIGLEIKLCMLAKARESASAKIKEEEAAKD", "experiment": "DNMT1 methyltransferase inhibitors, confirmation, biochemical, fluorescent molecular beacon (AID 602386)", "format": "functional"}, "[18]": {"target": "Protein disulfide-isomerase (Homo sapiens, UniProt P07237)", "sequence (P07237 whole entry)": "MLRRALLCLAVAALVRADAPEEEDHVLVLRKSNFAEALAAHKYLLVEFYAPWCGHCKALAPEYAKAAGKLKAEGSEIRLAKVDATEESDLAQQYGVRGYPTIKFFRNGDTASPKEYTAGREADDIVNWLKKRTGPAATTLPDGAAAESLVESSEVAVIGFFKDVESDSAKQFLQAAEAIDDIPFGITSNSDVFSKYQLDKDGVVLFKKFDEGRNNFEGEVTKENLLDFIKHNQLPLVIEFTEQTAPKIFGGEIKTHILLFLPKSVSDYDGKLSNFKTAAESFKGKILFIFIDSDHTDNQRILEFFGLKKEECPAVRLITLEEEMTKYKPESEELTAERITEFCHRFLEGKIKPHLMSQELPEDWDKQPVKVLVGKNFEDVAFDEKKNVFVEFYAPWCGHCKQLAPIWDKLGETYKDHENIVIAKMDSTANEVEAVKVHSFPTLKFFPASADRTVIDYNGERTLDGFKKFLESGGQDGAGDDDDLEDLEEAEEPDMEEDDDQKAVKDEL", "experiment": "PDI inhibitors, insulin aggregation turbidity, dose response, biochemical, absorbance, cherry-picked samples (AID 602350)", "format": "functional"}, "ELAV-like protein 1": {"target": "ELAV-like protein 1 (Homo sapiens, UniProt Q15717)", "sequence (Q15717 whole entry)": "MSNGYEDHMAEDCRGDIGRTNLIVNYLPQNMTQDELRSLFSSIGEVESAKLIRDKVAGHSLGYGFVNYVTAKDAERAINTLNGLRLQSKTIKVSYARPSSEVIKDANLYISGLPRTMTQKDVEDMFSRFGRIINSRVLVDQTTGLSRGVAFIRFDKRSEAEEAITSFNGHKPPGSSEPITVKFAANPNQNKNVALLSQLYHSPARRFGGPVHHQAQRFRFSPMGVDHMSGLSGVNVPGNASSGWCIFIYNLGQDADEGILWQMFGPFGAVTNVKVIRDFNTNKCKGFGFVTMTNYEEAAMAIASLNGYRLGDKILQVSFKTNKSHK", "experiment": "Identify HuR specific inhibitors.", "format": "functional"}, "[19]": {"target": "T3, DNA repair protein RAD52 homolog (Homo sapiens, UniProt P43351)", "T3 sequence (P43351 whole entry)": "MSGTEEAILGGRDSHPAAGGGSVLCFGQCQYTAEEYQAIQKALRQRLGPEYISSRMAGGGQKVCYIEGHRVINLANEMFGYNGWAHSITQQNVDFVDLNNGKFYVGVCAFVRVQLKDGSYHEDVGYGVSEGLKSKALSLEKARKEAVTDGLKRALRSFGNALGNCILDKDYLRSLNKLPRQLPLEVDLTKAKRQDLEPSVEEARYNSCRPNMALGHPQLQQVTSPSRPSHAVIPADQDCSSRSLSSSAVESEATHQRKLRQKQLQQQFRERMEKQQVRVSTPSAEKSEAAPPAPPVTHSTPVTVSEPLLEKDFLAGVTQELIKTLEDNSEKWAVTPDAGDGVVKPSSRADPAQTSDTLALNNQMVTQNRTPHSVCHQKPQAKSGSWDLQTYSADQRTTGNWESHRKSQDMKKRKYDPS", "format": "functional, biochemical"}, "[20]": {"experiment": "Dose-response inhibition of insulin secretion in a rat insulinoma line at 5 mM glucose (AID 1117331)", "format": "functional, cell-based", "details": "INS-1E"}, "cells [21]": {"experiment": "cells", "format": "functional, cell-based", "details": "INS-1E"}}, "note": "Counter-ions that a name gives are not always drawn. Activity calls are given as the source filed them.", "data": [{"molecule": "CCC/C(=N\\c1ccc(N)cc1)C1=C(O)C(C(=O)OC)C(C)(C)CC1=O", "note": "(centres undefined)", "values": [{"measurement": "IC50", "setting": "[1]", "result": "9.5 µM (active)"}, {"measurement": "IC50", "setting": "Fibrinogen beta chain [2]", "result": "> 83.3 µM (inactive)"}, {"measurement": "IC50", "setting": "Fibrinogen beta chain [3]", "result": "> 83.3 µM (inactive)"}]}, {"molecule": "O=C1C(/C=N/c2ccccc2)=C(O)c2ccccc21", "values": [{"measurement": "EC50", "setting": "[4]", "result": "> 67.5 µM (inactive)"}, {"measurement": "EC50", "setting": "cells [5]", "result": "> 67.5 µM (inactive)"}]}, {"molecule": "CC(=O)Nc1sc2c(c1-c1nc3ccccc3s1)CN(C(C)C)C2", "values": [{"measurement": "IC50", "setting": "[6]", "result": "> 43.8 µM (inactive)"}]}, {"molecule": "Cn1c(Cn2c(=O)sc3ccccc32)nnc1SCC(=O)NCc1ccc(F)cc1", "values": [{"measurement": "CC50", "setting": "[7]", "result": "> 40 µM (active)"}]}, {"molecule": "CC(CNc1ccc(Cl)cc1)(CNc1ccc(Cl)cc1)[N+](=O)[O-]", "values": [{"measurement": "AC50", "setting": "[8]", "result": "> 52 µM (inactive)"}]}, {"molecule": "O=C(/C=C/c1ccc(F)cc1)N1CCN(S(=O)(=O)c2cccc(F)c2)CC1", "values": [{"measurement": "IC50", "setting": "[9]", "result": "0.0196 µM (active)"}]}, {"molecule": "Cc1c(NS(=O)(=O)c2ccc(NC3CCCC3)c([N+](=O)[O-])c2)c(=O)n(-c2ccccc2)n1C", "values": [{"measurement": "EC50", "setting": "Transthyretin", "result": "> 167 µM (inactive)"}]}, {"molecule": "COc1cc(OC)cc(C(=O)NNC(=O)c2ccccc2Br)c1", "values": [{"measurement": "IC50", "setting": "Prothrombin", "result": "> 50 µM (not active)"}, {"measurement": "IC50", "setting": "[10]", "result": "> 100 µM (active)"}]}, {"molecule": "CCOC(=O)c1c(NC(=O)CNCCN(C)C)sc(C)c1-c1ccccc1", "values": [{"measurement": "AC50", "setting": "[11]", "result": "7.22 µM (active)"}, {"measurement": "AC50", "setting": "[12]", "result": "> 52 µM (inactive)"}]}, {"molecule": "COc1ccc(C(=O)NC2=C(c3ccccc3)C(=O)c3ccccc3C2=O)cc1", "values": [{"measurement": "AC50", "setting": "[13]", "result": "40.6 µM (active)"}, {"measurement": "AC50", "setting": "[14]", "result": "20.9 µM (active)"}]}, {"molecule": "Cc1ccc(NC(=O)Cn2cccc2)c(C)c1", "values": [{"measurement": "IC50", "setting": "[15]", "result": "> 109 µM (inactive)"}, {"measurement": "IC50", "setting": "[16]", "result": "> 83.4 µM (inactive)"}]}, {"molecule": "COC(=O)CC1OCC=C2CN3CCC45C6=CC(=O)C(=O)C([N+](=O)[O-])=C6NC4C1C2CC35", "note": "(centres undefined)", "values": [{"measurement": "IC50", "setting": "[17]", "result": "6.06 µM (active)"}, {"measurement": "AC50", "setting": "[18]", "result": "8.03 µM (active)"}, {"measurement": "IC50", "setting": "ELAV-like protein 1", "result": "69.6 µM (inactive)"}]}, {"molecule": "CCC(=O)c1ccc2c(c1)N(CCCN(C)C)c1ccccc1S2", "note": "[PROPIONYLPROMAZINE HYDROCHLORIDE]", "values": [{"measurement": "AC50", "setting": "[19]", "result": "31.4 µM (active)"}, {"measurement": "IC50", "setting": "[20]", "result": "10.7 µM (inactive)"}, {"measurement": "IC50", "setting": "cells [21]", "result": "> 33.3 µM (inactive)"}]}]}
